This assay relates to HBV. The assay can be described thus: Anti-HBV activity in vitro: quantification of extracellular HBV DNA by direct qPCR in HepAD38 cells. The class given is cell-based. The following applies: Hepatitis B virus, tetracycline-free medium, 96 hours at 37°C, reported as EC50 threshold value, read-out: HBV inh EC50. A general note: Quantitative PCR measures a nucleic acid by following its amplification.

Each structure is given as a SMILES string. pEC50: −log10 of the molar value.

Data on 4 compounds can be found in EP3741762A1, “OXALAMIDO-SUBSTITUTED TRICYCLIC INHIBITORS OF HEPATITIS B VIRUS” (priority 2019, dated 2020).

As a reminder, the pEC50 is −log10 of the EC50, conventionally taken in molar units. For `Cc1cc(NC(=O)c2c3c(cn2C)S(=O)(=O)N[C@H]2CN(C(=O)C(=O)NCC4CC4)C[C@H]2CS3)ccc1F` [Example E39, (3aR,10aR)-2-(2-((cyclopropylmethyl)amino)-2-oxoacetyl)-N-(4-fluoro-3-methylphenyl)-7-methyl-2,3,3a,4,10,10a-hexahydro-1H,7H-dipyrrolo[3,4-c:3',4'-g][1,6,2]dithiazocine-8-carboxamide 5,5-dioxide], the pEC50 was > 6.30.
Under `Cc1cc(NC(=O)c2c3c(cn2C)S(=O)(=O)N[C@H]2CN(C(=O)C(=O)NC4(C)CC4)C[C@H]2CS3)ccc1F` [Example E40, (3aR,10aR)-N-(4-fluoro-3-methylphenyl)-7-methyl-2-(2-((1-methylcyclopropyl)amino)-2-oxoacetyl)-2,3,3a,4,10,10a-hexahydro-1H,7H-dipyrrolo[3,4-c:3',4'-g][1,6,2]dithiazocine-8-carboxamide 5,5-dioxide] stands > 6.30; under `Cc1cc(NC(=O)c2c3c(cn2C)S(=O)(=O)N[C@H]2CN(C(=O)C(=O)NC4CC(F)(F)C4)C[C@H]2CS3)ccc1F` [Example E41, (3aR,10aR)-2-(2-((3,3-difluorocyclobutyl)amino)-2-oxoacetyl)-N-(4-fluoro-3-methylphenyl)-7-methyl-2,3,3a,4,10,10a-hexahydro-1H,7H-dipyrrolo[3,4-c:3',4'-g][1,6,2]dithiazocine-8-carboxamide 5,5-dioxide], > 6.30; under `Cc1cc(NC(=O)c2c3c(cn2C)S(=O)(=O)N[C@H]2CN(C(=O)C(=O)NC4(C)COC4)C[C@H]2CS3)ccc1F` [Example E42, (3aR,10aR)-N-(4-fluoro-3-methylphenyl)-7-methyl-2-(2-((3-methyloxetan-3-yl)amino)-2-oxoacetyl)-2,3,3a,4,10,10a-hexahydro-1H,7H-dipyrrolo[3,4-c:3',4'-g][1,6,2]dithiazocine-8-carboxamide 5,5-dioxide], > 6.30.
